Converted amounts (≈) assume the structure as drawn. Where two headings read alike, the source gives them in different places. Square brackets hold non-standard residues; d marks the D form. Peptide text beside a SMILES is read from it. * marks the point of attachment. Myristoyl = CCCCCCCCCCCCCC(=O)*; Orn = NCCC[C@H](N)C(=O)O
Columns and labels:
[1] = tested on: C. auris B11245; type: cell-based, Candida auris; conditions: for MIC of antifungal in combination with KKOO / MIC of antifungal in combination with KKOO-NH2: RPMI1640, 37 °C, 48 h; for MIC of antifungal in combination with KKOO-NH2: MIC = well with <20% growth
Experimental: All microdilution assays with fungi were carried out in accordance with CLSI protocols from M27 for yeasts and M38 for filamentous fungi, respectively, unless otherwise specified.[64],[65] Briefly, 96-well plates were charged with RPMI1640 media, with operating volume in the first column, 200 μL, and half operating volume, 100 μL, in the remaining wells. Drug stock solution in DMSO was aliquoted into the first well in each row. Half of the volume in the dosed well was serially diluted 2-fold until column 11. Column 11 was used as the negative growth control, and column 12 was used as the positive growth control. ON yeast cultures in YPD were washed twice in DD-H2O, resuspended in PBS, and adjusted to 5000 cfu/mL in RPMI. The 96-well plate was inoculated with 100 μL aliquots of cell suspension per well. Plates were incubated at 37 °C for 2 days.
To assess drug synergy, the initial media charged to the plate contained the peptide at twice the final operating concentration; the remaining processing steps were identical to the MIC experiment. Upon addition of 100 μL of inoculant, the final operating concentration was achieved. Control MIC plates were prepared alongside drug synergy plates to account for the day-to-day variability in any individual MIC. FIC index is computed using eq 1. All MIC assays and drug synergy assays were completed with two technical replicates per 96-well plate and a minimum of two biological replicates per drug combination. If a difference in MIC between the two technical replicates on the plate were observed, only the higher concentration was reported as the MIC to reduce the possibility of type 1 error (false positive) [drawing 1] 1

[2] = tested on: C. neoformans cdc50Δ; conditions: Cdc50 deleted, previous study; cited from earlier work
Experimental: Our previous studies have identified that the Cn cdc50Δ mutant was highly susceptible to CAS compared to the wild-type.[23] The minimum inhibitory concentration (MIC) of CAS was reduced 4-fold from 16 to 4 μg/mL when Cdc50 was deleted. The surprising observation that loss of Cdc50 sensitized Cryptococcus to CAS led to an obvious question: why did a mutation to a seemingly disparate cellular system-membrane homeostasis proteins have such a dramatic effect on the susceptibility to cell wall biosynthesis inhibitors? It was subsequently discovered that Cdc50 in C. neoformans is unique because it h ...

[3] = tested on: C. neoformans H99 and cdc50Δ; assay: Intracellular calcium measurement (Fluo-3AM, flow cytometry); type: cell-based, Cryptococcus neoformans; conditions: YPD, remained elevated for the 60 min time course
Experimental: Intracellular calcium measurement was carried out in accordance with previously reported methodologies.[35] Yeast cells were sub cultured ON in YPD, and the next day cells were washed twice in D-Hanks (0.4 g/Liter KCl, 0.06 g/Liter KH2PO4, 8.0 g/Liter NaCl, 0.35 g/Liter NaHCO3, 0.06 g/Liter Na2HPO4·7H2O) and adjusted to 1 × 10^7 cfu/mL in 5 mL D-Hanks. Fluo-3-AM stock solution in DMSO was diluted 1000-fold to operating stain concentration of 10 μM. Cells were stained in the dark for 30 min at 37 °C, 225 rpm, in a 12 mL culture tube. Stained cells were washed three times in D-Hanks and resuspended into a minimal amount of YPD or calcium-enriched YPD required to inoculate each condition. Each condition was prepared with three technical replicates. After inoculating 1 mL YPD with 0.2 mL cell suspension, 0.2 mL was aliquoted into a flow tube for the 0 min time point. The flow tube was placed on ice until flow analysis. […] To allow for sample processing for each time point, each set of replicates was inoculated and treated about 2 min apart. Subsequent 0.2 mL aliquots were drawn at 12, 24, 36, and 60 min for flow analysis. Live cells were analyzed using BD FACS via 100,000 events were collected, and singlets were gated for each sample. The mean fluorescence of the singlets was recorded and plotted as a function of […].

[4] = tested on: C. neoformans with macrophage J774 cells; assay: Phagocytosis assay; type: cell-based, Cryptococcus neoformans / murine macrophage; conditions: sub-MIC peptide-treated yeast cells coincubated with macrophages for 2 h
Experimental: The J774A. I macrophage-like cell line (ATCC# TIB-67) was grown in DMEM supplemented with 10% FBS, 5% penstrep, and L-glutamine (1×), and passed 2–3 times per week. The cells were never used after 5 passages. Phagocytosis assay was performed in a 48-well plate using J774 cells (5 × 10^4) in 0.5 mL of fresh DMEM were added to each well and incubated at 37 °C, 5% CO2. To activate the macrophages, 50 units/mL interferon γ (IFN-γ; Invitrogen) and 1 μg/mL lipopolysaccharide (LPS; Sigma) were added to each well. Yeast cells were adjusted to 2.4 × 10^6 cfu/mL in RPMI1640. One mL of cell suspension was aliquoted into a 12 mL vented culture tube. The peptide was added to each tube, and the cells were incubated for 30 min at 30 °C, 225 rpm. The cells were pelleted and resuspended in 100 μL of 20% mouse compliment in PBS. The cells were opsonized at room temperature for 30 min. After opsonization, 10 μL of cell suspension was added to each well. Yeast cells were coincubated with macrophages for 2 h at 37 °C in 5% CO2 in technical triplicates per condition. After coincubation, the supernatant was removed, and the wells were washed 3 times with 200 μL DMEM + penstrep, and then fixed with 200 μL ice cold methanol for 30 min. […] The images were quantified using phagocytosis rate, % phagocytosis, and phagocytic index, eqs 3–5, between 200 and 300 macrophages were counted per technical replicate [drawing 3] […]

[5] = +0 μg/mL KKOO (control), CAS: paradoxical growth, MIC = <20% growth
[6] = +0 μg/mL KKOO-NH2 (control), CAS: paradoxical growth
[7] = +1 μg/mL KKOO-NH2, CAS: paradoxical growth
[8] = +1 μg/mL KKOO, CAS: paradoxical growth, MIC = <20% growth
[9] = +2 μg/mL KKOO-NH2, CAS: paradoxical growth
[10] = +2 μg/mL KKOO, CAS: paradoxical growth, MIC = <20% growth
[11] = +4 μg/mL KKOO-NH2, CAS: paradoxical growth
[12] = +4 μg/mL KKOO, CAS: paradoxical growth, MIC = <20% growth

| Structure (SMILES) | MIC of antifungal in combination with KKOO [1, 5] [µg/mL] | MIC of antifungal in combination with KKOO-NH2 [1, 6] [µg/mL] | MIC of antifungal in combination with KKOO-NH2 [1, 7] [µg/mL] | MIC of antifungal in combination with KKOO [1, 8] [µg/mL] | MIC of antifungal in combination with KKOO-NH2 [1, 9] [µg/mL] | MIC of antifungal in combination with KKOO [1, 10] [µg/mL] | MIC of antifungal in combination with KKOO-NH2 [1, 11] [µg/mL] | MIC of antifungal in combination with KKOO [1, 12] [µg/mL] | MIC of antifungal in combination with KKOO ([1]; +8 μg/mL KKOO) [µg/mL] | MIC [2] [µg/mL] | reduction of MIC of antifungal ([1]; in the presence of 2 μg/mL KKOO-NH2, 48 h) [fold] | time to difference in intracellular calcium signaling vs untreated cells [3] [min] | phagocytic index or phagocytosis rate vs control [4] |
| --- | --- | --- | --- | --- | --- | --- | --- | --- | --- | --- | --- | --- | --- |
| C[C@@H]1[C@H](O)[C@@H](C)/C=C/C=C/C=C/C=C/C=C/C=C/C=C/[C@H](O[C@@H]2O[C@H](C)[C@@H](O)[C@H](N)[C@@H]2O)C[C@@H]2O[C@](O)(C[C@@H](O)C[C@@H](O)[C@H](O)CC[C@@H](O)C[C@@H](O)CC(=O)O[C@H]1C)C[C@H](O)[C@H]2C(=O)O [AMB, amphotericin B] | 1 | 1 | 0.5 | 0.5 | 0.5 | 0.5 | 0.25 | 0.25 |  |  |  |  |  |
| OC(Cn1cncn1)(Cn1cncn1)c1ccc(F)cc1F [FLC, fluconazole] | > 128 | >128 | >128 | > 128 | >128 | > 128 | >128 | > 128 | > 128 |  |  |  |  |
| CCC(C)n1ncn(-c2ccc(N3CCN(c4ccc(OCC5COC(Cn6cncn6)(c6ccc(Cl)cc6Cl)O5)cc4)CC3)cc2)c1=O (stereo not shown) [ITR, itraconazole] | 0.5 | 0.5 | 0.125 | 0.25 | 0.062 | 0.062 | 0.016 | 0.031 |  |  |  |  |  |
| CC[C@H](C)C[C@H](C)CCCCCCCCC(=O)N[C@H]1C[C@@H](O)[C@@H](NCCN)NC(=O)[C@@H]2[C@@H](O)CCN2C(=O)[C@H]([C@H](O)CCN)NC(=O)[C@H]([C@H](O)[C@@H](O)c2ccc(O)cc2)NC(=O)[C@@H]2C[C@@H](O)CN2C(=O)[C@H]([C@@H](C)O)NC1=O [CAS, caspofungin] | 1 | 1 | 0.5 | 1 | 0.125 | 0.25 | 0.031 | 0.031 |  | 4 (≈ 3.66 µM) | 8 |  |  |
| CCCCCCCCCCCCCC(=O)N[C@@H](Cc1c[nH]c2ccccc12)C(=O)NCC(=O)NCC(=O)N[C@H](C(=O)N[C@@H](CCCN)C(=O)N[C@@H](CCCN)C(=O)N[C@@H](CC(N)=O)C(=O)N[C@@H](Cc1ccc(O)cc1)C(=O)N[C@@H](C)C(N)=O)[C@@H](C)CC [KKOO-NH2] (Myristoyl-WGGI[Orn][Orn]NYA-NH2) |  |  |  |  |  |  |  |  |  |  |  | ≤ 12 | No statistically significant differences |

Source: paper PMC11555678, “Improved Broad Spectrum Antifungal Drug Synergies with Cryptomycin, a Cdc50-Inspired Antifungal Peptide” (ACS Infectious Diseases, 2024)
